Data reported in patent US8158792B2, “Spiropiperidines for use as tryptase inhibitors” (Janssen Pharmaceutica N.V., priority 2007, dated 2012).

These molecules were tested against human lung tryptase (assay: β-Tryptase In-Vitro Enzyme Assay). Details: human lung tryptase 1 nM, substrate H-D-HHT-Ala-Arg-pNa 500 μM, pH 7.4, room temperature.
Assay type: biochemical
Description: The β-tryptase assay was conducted with human lung tryptase (Cortex Biochem #CP3033) in an aqueous buffer (10 mM Tris, 10 mM Hepes, 150 mM NaCl, 0.1% PEG 8000, pH 7.4) using the chromogenic substrate H-D-HHT-Ala-Arg-pNa. […] Percent inhibition was calculated by comparing the initial reaction velocity of samples without inhibitor to those with inhibitor. The initial reaction velocities were analyzed using Microsoft Excel.

IC50 [nM]	Compound
330	NCc1ccc2c(c1)C1(CCN(C(=O)c3ccc(-c4cccc(C(F)(F)F)c4)o3)CC1)CO2 [Cpd 135, 1-[5-(3-trifluoromethyl-phenyl)-furan-2-yl]carbonyl-5′-aminomethyl-spiro[piperidine-4,3′-(2H)-benzo[b]furan]]
25	NCc1ccc2c(c1)C1(CCN(C(=O)c3ccc(-c4ccc(Cl)cc4Cl)o3)CC1)CO2 [Cpd 136, 1-[5-(2,4-dichloro-phenyl)-furan-2-yl]carbonyl-5′-aminomethyl-spiro[piperidine-4,3′-(2H)-benzo[b]furan]]
53	NCc1ccc2c(c1)C1(CCN(C(=O)c3ccc(-c4cc(Cl)ccc4Cl)o3)CC1)CO2 [Cpd 137, 1-[5-(2,5-dichloro-phenyl)-furan-2-yl]carbonyl-5′-aminomethyl-spiro[piperidine-4,3′-(2H)-benzo[b]furan]]
140	NCc1ccc2c(c1)C1(CCN(C(=O)c3ccc(-c4ccc(Cl)c(Cl)c4)o3)CC1)CO2 [Cpd 138, 1-[5-(3,4-dichloro-phenyl)-furan-2-yl]carbonyl-5′-aminomethyl-spiro[piperidine-4,3′-(2H)-benzo[b]furan]]
87	Cc1cc(OCc2ccc(C(=O)N3CCC4(CC3)COc3ccc(CN)cc34)o2)ccc1Cl [Cpd 139, 1-[5-(3-methyl-4-chloro-phenoxymethyl)-furan-2-yl]carbonyl-5′-aminomethyl-spiro[piperidine-4,3′-(2H)-benzo[b]furan]]
40	NCc1ccc2c(c1)C1(CCN(C(=O)c3ccc(-c4ccc(Br)cc4)o3)CC1)CO2 [Cpd 140, 1-[5-(4-bromo-phenyl)-furan-2-yl]carbonyl-5′-aminomethyl-spiro[piperidine-4,3′-(2H)-benzo[b]furan]]
650	NCc1ccc2c(c1)C1(CCN(C(=O)c3cncc(-c4ccccc4)c3)CC1)CO2 [Cpd 142, 1-(5-phenyl-pyridin-3-yl)carbonyl-5′-aminomethyl-spiro[piperidine-4,3′-(2H)-benzo[b]furan]]
56	NCc1ccc2c(c1)C1(CCN(C(=O)c3cncc(-c4cccs4)c3)CC1)CO2 [Cpd 143, 1-(5-thien-2-yl-pyridin-3-yl)carbonyl-5′-aminomethyl-spiro[piperidine-4,3′-(2H)-benzo[b]furan]]
30	COc1cccc(-c2ccc(C(=O)N3CCC4(CC3)COc3ccc(CN)cc34)o2)c1 [Cpd 144, 1-[5-(3-methoxy-phenyl)-furan-2-yl]carbonyl-5′-aminomethyl-spiro[piperidine-4,3′-(2H)-benzo[b]furan]]
340	NCc1ccc2c(c1)C1(CCN(C(=O)c3ccc(Cn4cc(Cl)cn4)o3)CC1)CO2 [Cpd 145, 1-[5-(4-chloro-pyrazol-1-ylmethyl)-furan-2-yl]carbonyl-5′-aminomethyl-spiro[piperidine-4,3′-(2H)-benzo[b]furan]]
5.2	NCc1ccc2c(c1)C1(CCN(C(=O)c3ccc(C#Cc4ccccc4Cl)o3)CC1)CO2 [Cpd 146, 1-[5-(2-chloro-phenylethynyl)-furan-2-yl]carbonyl-5′-aminomethyl-spiro[piperidine-4,3′-(2H)-benzo[b]furan]]
66	NCc1ccc2c(c1)C1(CCN(C(=O)c3ccc(CSCc4ccccc4)o3)CC1)CO2 [Cpd 147, 1-[5-(benzylthiomethyl)-furan-2-yl]carbonyl-5′-aminomethyl-spiro[piperidine-4,3′-(2H)-benzo[b]furan]]
330	Cc1cc(C)nc(SCc2ccc(C(=O)N3CCC4(CC3)COc3ccc(CN)cc34)o2)n1 [Cpd 148, 1-[5-(4,6-dimethyl-pyrimidin-2-ylthiomethyl)-furan-2-yl]carbonyl-5′-aminomethyl-spiro[piperidine-4,3′-(2H)-benzo[b]furan]]
110	NCc1ccc2c(c1)C1(CCN(C(=O)c3ccc(Oc4cc(Cl)cc(Cl)c4)o3)CC1)CO2 [Cpd 149, 1-[5-(3,5-dichloro-phenoxy)-furan-2-yl]carbonyl-5′-aminomethyl-spiro[piperidine-4,3′-(2H)-benzo[b]furan]]
180	Cc1nn(-c2ccc(C(=O)N3CCC4(CC3)COc3ccc(CN)cc34)o2)c(C)c1Br [Cpd 150, 1-[5-(3,5-dimethyl-4-bromo-pyrazol-1-yl)-furan-2-yl]carbonyl-5′-aminomethyl-spiro[piperidine-4,3′-(2H)-benzo[b]furan]]
180	NCc1ccc2c(c1)C1(CCN(C(=O)c3ccc(CSc4ccc(C(F)(F)F)cn4)o3)CC1)CO2 [Cpd 151, 1-[5-(5-trifluoromethyl-pyridin-2-ylthiomethyl)-furan-2-yl]carbonyl-5′-aminomethyl-spiro[piperidine-4,3′-(2H)-benzo[b]furan]]
2.3	NCc1ccc2c(c1)C1(CCN(C(=O)c3cc(C#Cc4ccccc4)ccn3)CC1)CO2 [Cpd 152, 1-[4-phenylethynyl-pyridin-2-yl]carbonyl-5′-aminomethyl-spiro[piperidine-4,3′-(2H)-benzo[b]furan]]
1.2	Cc1ccccc1C#Cc1ccc(C(=O)N2CCC3(CC2)COc2ccc(CN)cc23)o1 [Cpd 153, 1-[5-(2-methyl-phenylethynyl)-furan-2-yl]carbonyl-5′-aminomethyl-spiro[piperidine-4,3′-(2H)-benzo[b]furan]]
260	NCc1ccc2c(c1)C1(CCN(C(=O)c3ccc(COc4ccc(F)cc4)o3)CC1)CO2 [Cpd 154, 1-[5-(4-fluoro-phenoxymethyl)-furan-2-yl]carbonyl-5′-aminomethyl-spiro[piperidine-4,3′-(2H)-benzo[b]furan]]
12	CSc1sc(C(=O)N2CCC3(CC2)COc2ccc(CN)cc23)c2c1C(=O)CCC2 [Cpd 155, 1-(3-methylthio-4-oxo-5,6,7-trihydro-4H-benzo[c]thien-1-yl)carbonyl-5′-aminomethyl-spiro[piperidine-4,3′-(2H)-benzo[b]furan]]
130	Cc1cc(C(=O)NCc2ccc(C(=O)N3CCC4(CC3)COc3ccc(CN)cc34)o2)c(C)o1 [Cpd 156, 1-[5-(2,5-dimethyl-furan-3-yl-carbonylaminomethyl)-furan-2-yl]carbonyl-5′-aminomethyl-spiro[piperidine-4,3′-(2H)-benzo[b]furan]]
17	CSc1sc(C(=O)N2CCC3(CC2)COc2ccc(CN)cc23)c(Cl)c1S(=O)(=O)C(C)C [Cpd 157, 1-(3-chloro-4-isopropylsulfonyl-5-methylthio-thien-2-yl)carbonyl-5′-aminomethyl-spiro[piperidine-4,3′-(2H)-benzo[b]furan]]
210	NCc1ccc2c(c1)C1(CCN(C(=O)c3cccs3)CC1)CO2 [Cpd 159, 1-thien-2-ylcarbonyl-5′-aminomethyl-spiro[piperidine-4,3′-(2H)-benzo[b]furan]]
210	NCc1ccc2c(c1)C1(CCN(C(=O)c3cc4ccccc4o3)CC1)CO2 [Cpd 160, 1-benzo[b]furan-2-ylcarbonyl-5′-aminomethyl-spiro[piperidine-4,3′-(2H)-benzo[b]furan]]
53	NCc1ccc2c(c1)C1(CCN(C(=O)/C=C/c3cccc(F)c3)CC1)CO2 [Cpd 161, (E)-1-(3-fluoro-phenylethenyl)carbonyl-5′-aminomethyl-spiro[piperidine-4,3′-(2H)-benzo[b]furan]]

Compound	IC50 [nM]
NCc1ccc2c(c1)C1(CCN(Cc3ccc(Cl)c(Cl)c3)CC1)CO2 [Cpd 158, 1-(3,4-dichloro-benzyl)-5′-aminomethyl-spiro[piperidine-4,3′-(2H)-benzo[b]furan]]	4500
